Results taken from paper PMC6399351, “Cationic Intrinsically Disordered Antimicrobial Peptides (CIDAMPs) Represent a New Paradigm of Innate Defense with a Potential for Novel Anti-Infectives” (Scientific Reports, 2019).
Like-named read-outs stand apart in the source and are kept apart here. Square brackets hold non-standard residues; d marks the D form. Ends that are not written are not given here. Peptide text beside a SMILES is read from it.

Test system: P. aeruginosa ATCC 10145
Settings: CFU assay, 10 mM NaP

Row | Molecule | LD90 (pH 5.5, 0.25% glucose) [µg/mL] | LD100 (pH 5.5, 0.25% glucose) [µg/mL] | LD100 (pH 5.5, 1% TSB) [µg/mL] | LD90 (pH 5.5, 1% TSB) [µg/mL]
1 | CC(C)C[C@@H](NC(=O)CNC(=O)[C@@H](CO)NC(=O)CNC(=O)[C@@H](Cc1c[nH]cn1)NC(=O)[C@@H](CCCNC(=N)N)NC(=O)CN)C(=O)NCC(=O)N[C@H](Cc1c[nH]cn1)C(=O)N[C@H](CO)C(=O)N[C@H](CO)C(=O)N[C@H](CO)C(=O)N[C@H](Cc1c[nH]cn1)C(=O)NCC(=O)N[C@H](CCC(N)=O)C(=O)N[C@H](Cc1c[nH]cn1)C(=O)NCC(=O)N[C@H](CO)C(=O)NCC(=O)N[C@H](CO)C(=O)NCC(=O)N[C@H](CCCNC(=N)N)C(=O)O [(D)HR 1-18] (H-G[dR][dH]G[dS]G[dL]G[dH][dS][dS][dS][dH]G[dQ][dH]G[dS]G[dS]G[dR]-OH; N-terminus and C-terminus assumed) | 0.038 | 0.3 | – | –
2 | GGHGSGLGHSSSHGQHGSGSGRSSSRGPY [HR 1-17R1-G] | 0.038 | 0.3 | – | –
3 | GRGGSGLGGSSSGGQGGSGSGRSSSRGPY [HR 1-174H-4G] | 75 | > 300 | – | –
4 | GRHGGGGGHGGGHGGHGGGGGR [HR 1-18,L-G/Q-G/6S-6G] | – | 0.15 | – | –
5 | GRHGSGGGHSSSHGGHGSGSGR [HR 1-18,L-G/Q-G] | – | 0.15 | – | –
6 | GRHGSGLGHSSSH [HR 1-37] | 9.38 | > 300 | – | –
7 | GRHGSGLGHSSSHGQH [HR 1-25] | 0.3 | 4.7 | – | –
8 | GRHGSGLGHSSSHGQHGSGSGGSSSRGPY [HR 1-17R2-G] | 0.038 | 0.15 | – | –
9 | GRHGSGLGHSSSHGQHGSGSGRSSSGGPY [HR 1-17R3-G] | 0.038 | 0.15 to 0.3 | – | –
10 | GRHGSGSGHSSSHGQHGSGSGR [HRNR2186-2207] | – | 4.7 to 9.37 | – | –
11 | GRHGSGSGQSSSYGPYGSGSGWSSSRGPY [HRNR1952-1980] | – | – | > 300 | –
12 | GRHGSGSGQSSSYGPYRSGSGWSSSRGPY [HRNR1013-1041] | – | – | > 300 | –
13 | GRHGSGSGQSSSYSPYGSGSGWSSSR [HRNR2422-2447] | – | – | > 300 | –
14 | GRHGSGSGQSSSYSPYGSGSGWSSSRGPY [HRNR2422-2450] | – | – | > 300 | 2.35
15 | GSGSRQSLSYGRHGSGSGR [HR 2-4L] | – | – | > 300 | 75
16 | GSGSRQSPSHGRHGSGSGR [HR 2-4H] | – | – | > 300 | 75

Row | Molecule | LD90 (pH 5.5, 0.25% glucose) [µg/mL] | LD100 (pH 5.5, 0.25% glucose) [µg/mL] | LD100 (pH 5.5, 1% TSB) [µg/mL] | LD90 (pH 5.5, 1% TSB) [µg/mL]
17 | GSGSRQSPSRGRHGSGSGR [HR 2-4R] | – | – | > 300 | –
18 | GSGSRQSPSY [HR 2-2] | – | – | > 300 | > 300
19 | GSGSRQSPSYGR [HR 2-8] | – | – | > 300 | 37.5
20 | GSGSRQSPSYGRHGSGSGR [HR 2-4] | – | – | > 300 | > 300
21 | GSGSRQSPSYGRHGSGSGRSSSSGQH [HR 2-11] | – | – | > 300 | 37.5
22 | GSGSRQSPSYGRQGSGSGR [HR 2-4Q] | – | – | > 300 | > 300
23 | GSGSRQSSGHGRQGSGSGQ [HR 1-16] | – | – | > 300 | > 300
24 | GSGSRQSSSYGRHGSGSGR [HR 2-4S] | – | – | > 300 | 150
25 | GSRQSPSYGRHGSGSGR [HR 2-12] | – | – | > 300 | > 300
26 | GSRTAGRRGSGH [FLG-22094-2105] | – | > 300 | – | –
27 | HAHSGHGQSTQR [FLG-22082-2093] | 0.15 | 2.35 | – | –
28 | HAHSGHGQSTQRGSR [FLG-22082-2096] | 0.15 | 1.18 | – | –
29 | HAHSGHGQSTQRGSRTAGRRGSGH [FLG-22082-2105] | < 0.038 | 0.075 | – | –
30 | HAHYGYGQSTQRGSRTTGRRGSGH [FLG-22232-2255] | 0.075 | 0.59 | – | –
31 | HGQSTQRGSRTAGRRGSGH [FLG-22087-2105] | 0.075 | 1.18 | – | –
